Consider 18 compounds from patent US20060235222A1, “Indole-derivative modulators of steroid hormone nuclear receptors” (ELI LILLY AND COMPANY, priority 2003, published 2006).

One assay deals with T1, human MR (Homo sapiens, UniProt P08235).
T1 construct: The full length human MR gene is cloned from a human kidney or human brain cDNA library; inferred from own knowledge of the pAcHLT vector (N); made in house; host or cells: Sf9 insect cells (baculovirus)
T1 sequence (P08235 1-984): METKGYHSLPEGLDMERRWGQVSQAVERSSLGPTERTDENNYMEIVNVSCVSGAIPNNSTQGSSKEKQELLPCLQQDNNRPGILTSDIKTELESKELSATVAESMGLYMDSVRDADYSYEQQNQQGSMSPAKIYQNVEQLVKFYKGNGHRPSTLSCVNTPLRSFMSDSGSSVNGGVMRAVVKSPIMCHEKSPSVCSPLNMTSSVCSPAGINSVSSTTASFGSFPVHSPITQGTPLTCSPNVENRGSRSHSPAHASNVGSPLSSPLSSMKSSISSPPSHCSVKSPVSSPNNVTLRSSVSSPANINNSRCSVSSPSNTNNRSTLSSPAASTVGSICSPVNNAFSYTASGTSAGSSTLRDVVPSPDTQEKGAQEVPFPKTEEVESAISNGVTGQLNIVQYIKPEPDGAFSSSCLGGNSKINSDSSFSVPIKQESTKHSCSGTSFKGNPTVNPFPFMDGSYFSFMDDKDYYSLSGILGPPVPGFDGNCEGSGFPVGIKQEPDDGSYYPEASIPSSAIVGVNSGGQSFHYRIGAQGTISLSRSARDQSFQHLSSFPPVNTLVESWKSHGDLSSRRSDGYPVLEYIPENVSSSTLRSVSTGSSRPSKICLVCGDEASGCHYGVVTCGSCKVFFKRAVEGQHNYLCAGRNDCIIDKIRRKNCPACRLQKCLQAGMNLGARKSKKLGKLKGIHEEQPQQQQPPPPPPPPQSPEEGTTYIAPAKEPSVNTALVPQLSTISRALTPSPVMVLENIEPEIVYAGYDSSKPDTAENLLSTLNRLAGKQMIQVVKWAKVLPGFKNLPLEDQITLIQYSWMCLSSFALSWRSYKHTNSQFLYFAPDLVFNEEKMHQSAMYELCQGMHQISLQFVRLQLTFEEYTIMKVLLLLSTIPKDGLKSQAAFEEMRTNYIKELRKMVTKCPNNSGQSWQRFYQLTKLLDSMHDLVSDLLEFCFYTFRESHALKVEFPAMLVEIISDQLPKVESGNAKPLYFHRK
Nature of the assay: Mineralocorticoid Receptor Binding Assay (Method 1), [3H]-aldosterone competition. To be noted: 0.5 nM [3H]-aldosterone, human MR expressed in Sf9 cells. The procedure: Mineralocorticoid Receptor Binding Assay (Method 1):
The full length human MR gene is cloned from a human kidney or human brain cDNA library. […] The PCR reaction is performed in a final volume of 50 μl containing about 1 μl of a 50× stock solution of polymerase; about 1 μl of a 50× stock solution of dNTP; about 5 μl of an appropriate PCR buffer; about 1 μl of each primer; about 5 μl of a H. kidney or H. brain cDNA library; and about 36 μl of water. The reaction is allowed to denature for about 30 seconds at 95 degrees Celsius, anneal for about 30 seconds at 55 degrees Celsius, and extend for about 5 minutes at 72 degrees Celsius, the sequence being repeated for a total of about 35 cycles. […] To extract the cDNA product from the agarose gel, the QIAEX II Gel Extraction protocol (QIAGEN, Inc.) is employed according to the manufacturer's instructions. Following extraction, the MR cDNA is cloned into an appropriate cloning vector (Zero Blunt TOPO PCR Cloning Kit (Invitrogen, Inc.) and a pAcHLT-baculovirus transfer vector (B.D./Pharminogen), then expressed in SF9 insect cells, essentially according to manufacturer's instructions. Sf9 cells are grown at a scale where gram quantity cell pellets are obtained for subsequent use in the MR binding assay. Harvested cell pellets are lysed by repeated freeze-thaw cycles (about 4) in a suitable lysis buffer then centrifuged at about 1×10^3 G (with the supernatant being saved for future assays).
MR binding assays are performed in a final total volume of about 250 μl containing about 20-25 μg of protein and 0.5 nM of [^3H]-aldosterone plus varying concentrations of test compound or vehicle. The assay binding buffer consists of 30 mM sodium molybdate, 30 mM of TRIS-HCl, 5 mM sodium phosphate, 5 mM sodium pyrophosphate, and about 10% glycerol, pH=7.5.
Incubations are carried out at 4 degrees Celsius with shaking for about 16 hours. 200 μl aliquots of each incubation are filtered onto Millipore HA 0.45 micron 96-well filter plates, pre-moistened with cold 30 mM TRIS-HCl. The filter plates are suctioned dry with vacuum and immediately washed 3× with cold 30 mM TRIS-HCl. The plates are then punched out and the amount of receptor-ligand complex is determined by liquid scintillation counting using 4 ml of Ready Protein Plus™ liquid scintillation cocktail.

Another assay concerns the target T2, glucocorticoid receptor (Homo sapiens, UniProt P04150).
T2 construct: containing 50-200 ug of A549 cell extract and 1.86 nM; host or cells: A549 human lung epithelial cells
T2 sequence (P04150 1-777): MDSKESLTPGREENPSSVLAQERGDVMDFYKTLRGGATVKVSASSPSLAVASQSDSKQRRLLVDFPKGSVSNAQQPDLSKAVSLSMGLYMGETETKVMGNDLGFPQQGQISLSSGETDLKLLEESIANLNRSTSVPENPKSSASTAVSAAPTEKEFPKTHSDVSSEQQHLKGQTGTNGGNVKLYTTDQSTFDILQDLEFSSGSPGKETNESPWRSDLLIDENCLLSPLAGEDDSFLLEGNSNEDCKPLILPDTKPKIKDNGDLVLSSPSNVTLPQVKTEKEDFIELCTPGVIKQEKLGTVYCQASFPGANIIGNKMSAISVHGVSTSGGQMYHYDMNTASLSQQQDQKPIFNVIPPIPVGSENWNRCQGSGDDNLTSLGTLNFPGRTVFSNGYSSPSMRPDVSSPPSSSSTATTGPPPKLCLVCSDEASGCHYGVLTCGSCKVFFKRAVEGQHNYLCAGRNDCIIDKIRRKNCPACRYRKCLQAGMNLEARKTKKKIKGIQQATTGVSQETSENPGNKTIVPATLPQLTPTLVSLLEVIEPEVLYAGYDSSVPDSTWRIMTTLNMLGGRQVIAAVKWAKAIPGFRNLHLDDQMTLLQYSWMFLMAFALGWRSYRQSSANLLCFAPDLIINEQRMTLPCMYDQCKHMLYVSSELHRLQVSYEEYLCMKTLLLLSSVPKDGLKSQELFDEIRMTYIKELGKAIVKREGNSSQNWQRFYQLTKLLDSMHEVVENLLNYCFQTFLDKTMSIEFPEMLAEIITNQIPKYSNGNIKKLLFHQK
Nature of the assay: Glucocorticoid Receptor Binding Assay (Method 1), [3H]-dexamethasone competition, A549 cell extract. To be noted: 1.86 nM [3H]-dexamethasone, read-out: GR Ki (nM) Method 1. The method, then: Glucocorticoid Receptor Binding Assay (Method 1):
A549 human lung epithelial cells (ATCC) are grown at a scale where gram quantity cell pellets are obtained. Harvested cell pellets are washed twice in cold phosphate buffered saline, centrifuged, and resuspended in cold assay binding buffer. The assay binding buffer consists of 10% glycerol, 50 mM Tris-HCl (pH7.2), 75 mM sodium chloride, 1.5 mM magnesium chloride, 1.5 mM EDTA, and 10 mM sodium molybdate. Cell suspensions were lysed via sonication, centrifuged, and the “extract” supernatant is snap frozen and stored at −80 C until needed.
Incubations are carried out at 4 degrees Celsius for 16 hours. After incubation, 70 ul of 3× dextran-coated charcoal solution is added to each reaction, mixed, and incubated for 8 minutes at RT. 3×-dextran-coated charcoal solution consists of 250 ml assay binding buffer, 3.75 g Norit A charcoal (Sigma), and 1.25 g dextran T-70 (Amersham). Charcoal/unbound radioligand complexes are removed by centrifugation of the plate and 140 ul of supernatant from each well is transferred to another 96 well Optiplate (Packard Instruments). 200 ul of Microscint-20 scinillant (Packard Instruments) is added to each well and amount of receptor bound radioligand is determined using Packard Instruments TopCount instrument.

Bounds are passed on as bounds.

With `CCC(CC)(c1cccc(C)c1)c1c[nH]c2c(NS(C)(=O)=O)cccc12` [Example 71, N-[3-(1-Ethyl-1-m-tolyl-propyl)-1H-indol-7-yl]-methanesulfonamide], the Ki on human MR and at glucocorticoid receptor was under 500 nM in each case.

Regarding `CCC(CC)(c1ccc2c(c1)CCO2)c1c[nH]c2c(NS(C)(=O)=O)cccc12` [Example 3, N-{3-[1-(2,3-Dihydro-benzofuran-5-yl)-1-ethyl-propyl]-1H-indol-7-yl}-methanesulfonamide], the inhibitory constant (Ki) on human MR and on glucocorticoid receptor was under 500 nM throughout.

With `CCCC(C)(c1ccc(F)cc1)c1c[nH]c2c(NS(C)(=O)=O)cccc12` (stereo not drawn) [Example 7, N-{3-[1-(4-Fluoro-phenyl)-1-methyl-butyl]-1H-indol-7-yl}-methanesulfonamide], the Ki on human MR and at glucocorticoid receptor was under 500 nM each time.

For `CCCC(C)(c1ccccc1OC)c1c[nH]c2c(NS(C)(=O)=O)cccc12` (stereo not drawn) [Example 44, N-{3-[1-(2-Methoxy-phenyl)-1-methyl-butyl]-1H-indol-7-yl}-methanesulfonamide], the inhibition constant Ki at human MR and on glucocorticoid receptor was under 500 nM in each case.

`CC(C)(c1ccc(F)cc1)c1c[nH]c2c(NS(C)(=O)=O)cccc12` [Example 76, N-{3-[1-(4-Fluoro-phenyl)-1-methyl-ethyl]-1H-indol-7-yl}-methanesulfonamide]: the inhibitory constant (Ki) at human MR and at glucocorticoid receptor was under 500 nM each time.

With `CCCC(C)(c1ccc(F)cc1)c1c[nH]c2c(C)cccc12` (stereo not drawn) [Example 26, 3-[1-(4-Fluoro-phenyl)-1-methyl-butyl]-7-methyl-1H-indole], the Ki on human MR and on glucocorticoid receptor was under 500 nM in each case.

Turning to `Cc1cccc2c(C(C)(c3ccc(F)cc3)C3CC3)c[nH]c12` (stereo not drawn) [Example 40, 3-[1-Cyclopropyl-1-(4-fluoro-phenyl)-ethyl]-7-methyl-1H-indole], the inhibitory constant (Ki) at human MR and at glucocorticoid receptor was under 500 nM throughout.

For the compound `Cc1ccc(C(C)(C)c2c[nH]c3c(N)cccc23)cc1` [Example 41, 3-(1-Methyl-1-p-tolyl-ethyl)-1H-indol-7-ylamine], the Ki (as a rule, a dissociation constant, usually derived from enzyme kinetics or from competition with a known ligand) was under 1000 nM at human MR and under 10000 nM on glucocorticoid receptor.

Consider `O=C(O)Cn1cc(C(c2ccccc2)(c2ccccc2)c2ccccc2)c2ccccc21` [Example 51, (3-Trityl-indol-1-yl)-acetic acid], for which the values for the inhibition constant (Ki) on human MR and on glucocorticoid receptor were under 1000 nM and under 10000 nM, respectively.

With `CC(C)(c1cc2ccccc2s1)c1c[nH]c2c(NS(C)(=O)=O)cccc12` [Example 13, N-[3-(1-Benzo[b]thiophen-2-yl-1-methyl-ethyl)-1H-indol-7-yl]-methanesulfonamide], the inhibition constant (Ki) at human MR was under 500 nM; on glucocorticoid receptor it was under 1000 nM.

For the compound `CCCC(C)(c1ccc(OC(F)(F)F)cc1)c1c[nH]c2c(N)cccc12` (stereo not drawn) [Example 35], the figures for the Ki on human MR and at glucocorticoid receptor were under 500 nM and under 10000 nM, respectively.

For `CCC(CC)(c1ccc([S@+](C)[O-])cc1)c1c[nH]c2c(NS(C)(=O)=O)cccc12` (stereo in doubt) [Example 49, N-{3-[1-Ethyl-1-(4-methanesulfinyl-phenyl)-propyl]-1H-indol-7-yl}-methanesulfonamide], the Ki at human MR and on glucocorticoid receptor was under 500 nM throughout.

Turning to `CCC(CC)(c1ccc(C)cc1C)c1c[nH]c2c(NS(C)(=O)=O)cccc12` [Example 60, N-{3-[1-(2,4-Dimethyl-phenyl)-1-ethyl-propyl]-1H-indol-7-yl}-methanesulfonamide], the inhibition constant (Ki) on human MR and on glucocorticoid receptor was under 500 nM in each case.

Consider `CCCCC(C)(c1ccc(OC)cc1)c1c[nH]c2c(C)cccc12` (stereo not drawn) [Example 23, 3-[1-(4-Methoxy-phenyl)-1-methyl-pentyl]-7-methyl-1H-indole], for which the Ki at human MR and at glucocorticoid receptor was under 500 nM throughout.

Turning to `CS(=O)(=O)Nc1cccc2c(C3(c4ccccc4)CCCC3)c[nH]c12` [Example 21, N-[3-(1-Phenyl-cyclopentyl)-1H-indole-7-yl]-methanesulfonamide], the inhibition constant (Ki) on human MR and at glucocorticoid receptor was under 500 nM in each case.

In the case of `Cc1cccc2c(C3(c4ccc(F)cc4)CCCCC3)c[nH]c12` [Example 32, 3-[1-(4-Fluoro-phenyl)-cyclohexyl]-7-methyl-1H-indole], the Ki at human MR was under 500 nM; on glucocorticoid receptor it was under 10000 nM.

For `CC(C)(c1cc2ccccc2o1)c1c[nH]c2c(NS(C)(=O)=O)cccc12` [Example 9, N-[3-(1-Benzofuran-2-yl-1-methyl-ethyl)-1H-indol-7-yl]-methanesulfonamide], the inhibition constant Ki on human MR and at glucocorticoid receptor was under 500 nM each time.

Consider `CCCC(C)(c1ccccc1)c1c[nH]c2c(NS(C)(=O)=O)cccc12` (stereo not drawn) [Example 70, N-[3-(1-Methyl-1-phenyl-butyl)-1H-indol-7-yl]-methanesulfonamide], for which the Ki on human MR and on glucocorticoid receptor was under 500 nM throughout.
